Experimental data from US20060088886A1, “Topiramate analogs” (priority 2004, published 2006).

Assays:
[1] = test system: sheep polyclonal antibodies that bind with topiramate prepared from immunogen (18); assay: QMS homogeneous particle-enhanced immunoturbidimetric assay; format: binding; conditions: Polyclonal antibody R1, Topiramate antigen (19) coated Latex
Procedure: An immunoturbidimetric or QMS® assay, which is a homogeneous particle-enhanced immunoturbidimetric experiment, is performed to test the polyclonal antibodies prepared as in Example 21. […] Additionally, suitable specimens can be prepared from serum and plasma. Serum can be collected by standard venipuncture techniques and placed into glass or plastic tubes with or without gel barriers. […] In the instance the specimen is centrifuged before a complete clot forms, the presence of fibrin may cause erroneous results. Accordingly, the serum can be separated from red blood cells as soon after collection as possible. Plasma can also be used with acceptable anticoagulants, such as lithium heparin, sodium heparin, potassium EDTA, and a heparin gel plasma separator. The plasma can be collected by standard venipuncture techniques and placed into glass or plastic tubes. Also, centrifugation is used to ensure the adequate removal of platelets. The plasma can be separated from red blood cells as soon as possible after collection. The specimens that contain particulate matter or red blood cells may give inconsistent results, but can be centrifuged before testing at a recommended 8,000 to 10,000 RCF×10 minutes to produce a suitable specimen. The assay procedure is initiated by diluting the specimen because the specimens with topiramate can be used to generate results that exceed the highest calibrator value. As such, the specimens may be diluted manually or by using an automated onboard dilution protocol. The assay is based on competition for topiramate-specific antibody binding sites between drug in the sample and drug coated onto a microparticle of topiramate-coated microparticle reagent is rapidly agglutinated in the presence of the anti-topiramate antibody reagent and in the absence of any competing drug in the sample. The rate of absorbance change is measured photometrically, and is directly proportional to the rate of agglutination of the particles. […] A concentration-dependent classic agglutination inhibition curve can be obtained, with maximum rate of agglutination at the lowest topiramate concentration (at zero μg/ml) and the lowest agglutination rate at the highest topiramate concentration (32 μg/ml). The QMS® topiramate assay is initiated after the being calibrated using a full calibration (6-point) procedure. The QMS® is performed as directed in operation manuals in accordance with the average skill of one in the art.

[2] = test system: anti-topiramate antibodies prepared with immunogen (18); assay: ELISA binding inhibition study (avidity), free topiramate vs coated antigens; parameters: species or system Rabbit; conditions: for Abs Antigen 16 / Abs Antigen 19 / Abs Antigen 20: 405 nm
Procedure: ELISA plates for use in an ELISA assay are prepared in order to study the polyclonal antibody prepared as described in Example 21. As such, various topiramate antigens (16), (19), and (20) are coated on different ELISA plates before being subjected to the anti-topiramate antibody and competing free topiramate. More particularly, the topiramate antigens are diluted in coating buffer, and then added to the wells of ELISA plate. After the ELISA plate is inculcated for 60 min at 37° C., the solvent in the coating buffer is decanted and a blocking buffer is added to the plate. The plate is incubated again for 60 min at 37° C., and the solvent in the blocking buffer is decanted from the plate. The ELISA plate is then stored with the blocking agent in the wells at 2-8° C. for up to 1 week. The avidity of the anti-topiramate antibodies prepared with immunogen (17) for topirainate analogs are determined by a binding inhibition study. As such, samples are prepared in 1 mL of PBS at pH 7.4 with 0.1% BSA. A composition having 30% Bmax titer or 50% Bmax titer is used to divide the obtained titer value into approximately half the titer value. Using 30% Bmax, an antibody titer of 1:10000 is diluted to 1:5000 during the sample preparation stage. About 50 μL of topiramate at different concentrations or calibrator values, (0, 2, 4, 8, 16, 32 μg/ml) are then applied to a plate as prepared in accordance with Example 22. About 50 μL of the diluted antibody is dispensed into the plate, and the compositions in the plate are mixed for 1 min on a horizontal plate shaker. The plate is characterized by a first row not containing topiramate or anti-topiramate antibody, wherein the first row is used as a negative control. A second row not containing topiramate is used as the positive control. The plate is incubated for 60 min, and washed three times with 250 μL of PBS at pH 7.4 with 0.05% tween. About 125 μL of a diluted second antibody conjugate such as antigens (16), (19), or (20), in PBS at pH 7.4 is added to each well of the plate. Titer is determined experimentally by the plate being incubated for 60 min at 37° C. and washed 3 times with 250 μL PBS, pH 7.4 with 0.05% tween. Subsequently, about 125 μL of ABTS substrate is added to each well of the plate and incubated for 20 min. The avidity of the anti-topiramate antibodies prepared with immunogen (18) for topiramate analogs is determined by a binding inhibition study performed with an experimental protocol substantially similar as in Example 24.

[3] = Rabbit No. 5490, topiramate 2 μg/ml
[4] = Rabbit No. 5490, topiramate 4 μg/ml
[5] = Rabbit No. 5490, topiramate 8 μg/ml
[6] = Rabbit No. 5490, topiramate 16 μg/ml
[7] = Rabbit No. 5490, topiramate 32 μg/ml
[8] = Rabbit No. 5495, topiramate 2 μg/ml
[9] = Rabbit No. 5495, topiramate 4 μg/ml
[10] = Rabbit No. 5495, topiramate 8 μg/ml
[11] = Rabbit No. 5495, topiramate 16 μg/ml
[12] = Rabbit No. 5495, topiramate 32 μg/ml

B/Bo Antigen 16 [2, 3]: 0.35 | B/Bo Antigen 19 [2, 3]: 0.18 | B/Bo Antigen 20 [2, 3]: 0.63 | Abs Antigen 16 [2, 3]: 0.25 | Abs Antigen 19 [2, 3]: 0.10 | Abs Antigen 20 [2, 3]: 0.25 | B/Bo Antigen 16 [2, 4]: 0.28 | B/Bo Antigen 19 [2, 4]: 0.10 | B/Bo Antigen 20 [2, 4]: 0.60 | Abs Antigen 16 [2, 4]: 0.20 | Abs Antigen 19 [2, 4]: 0.06 | Abs Antigen 20 [2, 4]: 0.24 | B/Bo Antigen 16 [2, 5]: 0.21 | B/Bo Antigen 19 [2, 5]: 0.07 | B/Bo Antigen 20 [2, 5]: 0.55 | Abs Antigen 16 [2, 5]: 0.15 | Abs Antigen 19 [2, 5]: 0.04 | Abs Antigen 20 [2, 5]: 0.22 | B/Bo Antigen 16 [2, 6]: 0.17 | B/Bo Antigen 19 [2, 6]: 0.06 | B/Bo Antigen 20 [2, 6]: 0.53 | Abs Antigen 16 [2, 6]: 0.12 | Abs Antigen 19 [2, 6]: 0.03 | Abs Antigen 20 [2, 6]: 0.21 | B/Bo Antigen 16 [2, 7]: 0.14 | B/Bo Antigen 19 [2, 7]: 0.04 | B/Bo Antigen 20 [2, 7]: 0.50 | Abs Antigen 16 [2, 7]: 0.10 | Abs Antigen 19 [2, 7]: 0.02 | Abs Antigen 20 [2, 7]: 0.20 | B/Bo Antigen 16 [2, 8]: 0.35 | B/Bo Antigen 19 [2, 8]: 0.20 | B/Bo Antigen 20 [2, 8]: 0.53 | Abs Antigen 16 [2, 8]: 0.25 | Abs Antigen 19 [2, 8]: 0.13 | Abs Antigen 20 [2, 8]: 0.18 | B/Bo Antigen 16 [2, 9]: 0.39 | B/Bo Antigen 19 [2, 9]: 0.12 | B/Bo Antigen 20 [2, 9]: 0.50 | Abs Antigen 16 [2, 9]: 0.28 | Abs Antigen 19 [2, 9]: 0.08 | Abs Antigen 20 [2, 9]: 0.17 | B/Bo Antigen 16 [2, 10]: 0.21 | B/Bo Antigen 19 [2, 10]: 0.08 | B/Bo Antigen 20 [2, 10]: 0.47 | Abs Antigen 16 [2, 10]: 0.15 | Abs Antigen 19 [2, 10]: 0.05 | Abs Antigen 20 [2, 10]: 0.16 | B/Bo Antigen 16 [2, 11]: 0.17 | B/Bo Antigen 19 [2, 11]: 0.06 | B/Bo Antigen 20 [2, 11]: 0.41 | Abs Antigen 16 [2, 11]: 0.12 | Abs Antigen 19 [2, 11]: 0.04 | Abs Antigen 20 [2, 11]: 0.14 | B/Bo Antigen 16 [2, 12]: 0.14 | B/Bo Antigen 19 [2, 12]: 0.03 | B/Bo Antigen 20 [2, 12]: 0.32 | Abs Antigen 16 [2, 12]: 0.10 | Abs Antigen 19 [2, 12]: 0.02 | Abs Antigen 20 [2, 12]: 0.11
SMILES: CC1(C)O[C@@H]2[C@@H](CO[C@@]3(COS(N)(=O)=O)OC(C)(C)O[C@@H]23)O1 [Topiramate, 2,3:4,5-di-O-isopropylidene-beta-D-fructopyranose sulfamate]
Rate (Delta Absorbance) ([1]; topiramate 2 μg/ml sample): 159 | Rate (Delta Absorbance) ([1]; topiramate 4 μg/ml sample): 122 | Rate (Delta Absorbance) ([1]; topiramate 8 μg/ml sample): 60 | Rate (Delta Absorbance) ([1]; topiramate 16 μg/ml sample): 16 | Rate (Delta Absorbance) ([1]; topiramate 32 μg/ml sample): 4
